ChEMBL document CHEMBL4400520, “Benzofuran-isatin-imine hybrids tethered via different length alkyl linkers: Design, synthesis and in vitro evaluation of anti-tubercular and anti-bacterial activities as well as cytotoxicity” (Eur J Med Chem, 2019)
Converted amounts (≈) assume the structure as drawn.

Key:
[1] = tested on: Mycobacterium tuberculosis; experiment: Antitubercular activity against Mycobacterium tuberculosis H37Rv; type: functional
[2] = Cytotoxicity against African green monkey Vero cells assessed as reduction in cell viability after 72 hrs by MTT assay; type: cell-based; settings: chlorocebus sabaeus, Vero cells
[3] = Selectivity index, ratio of CC50 for African green monkey Vero cells to MIC for Mycobacterium tuberculosis H37Rv; type: toxicity; settings: read-out: Selectivity Index
[4] = tested on: Staphylococcus epidermidis; experiment: Antibacterial activity against methicillin-sensitive Staphylococcus epidermidis; type: functional
[5] = tested on: Staphylococcus epidermidis; experiment: Antibacterial activity against methicillin-resistant Staphylococcus epidermidis; type: functional
Staphylococcus aureus [6] = experiment: Antibacterial activity against methicillin-sensitive Staphylococcus aureus; type: functional
Staphylococcus aureus [7] = experiment: Antibacterial activity against methicillin-resistant Staphylococcus aureus; type: functional
Enterococcus faecalis = experiment: Antibacterial activity against Enterococcus faecalis; type: functional
Enterococcus faecium = experiment: Antibacterial activity against Enterococcus faecium; type: functional
Escherichia coli = experiment: Antibacterial activity against Escherichia coli; type: functional
Klebsiella pneumoniae = experiment: Antibacterial activity against Klebsiella pneumoniae; type: functional
Pseudomonas aeruginosa = experiment: Antibacterial activity against Pseudomonas aeruginosa ATCC 27853; type: functional
[8] = tested on: Acinetobacter calcoaceticus; experiment: Antibacterial activity against Acinetobacter calcoaceticus; type: functional
Enterobacter cloacae = experiment: Antibacterial activity against Enterobacter cloacae; type: functional
Klebsiella aerogenes = experiment: Antibacterial activity against Enterobacter aerogenes; type: functional
Proteus mirabilis = experiment: Antibacterial activity against Proteus mirabilis; type: functional
Citrobacter freundii = experiment: Antibacterial activity against Citrobacter freundii; type: functional

| SMILES | MIC [1] [µg/mL] | CC50 at 72 h [2] [µg/mL] | selectivity ratio [3] | MIC90 [4] [µg/mL] | MIC90 [5] [µg/mL] | MIC90 (Staphylococcus aureus [6]) [µg/mL] | MIC90 (Staphylococcus aureus [7]) [µg/mL] | MIC90 (Enterococcus faecalis) [µg/mL] | MIC90 (Enterococcus faecium) [µg/mL] | MIC90 (Escherichia coli) [µg/mL] | MIC90 (Klebsiella pneumoniae) [µg/mL] | MIC90 (Pseudomonas aeruginosa) [µg/mL] | MIC90 [8] [µg/mL] | MIC90 (Enterobacter cloacae) [µg/mL] | MIC90 (Klebsiella aerogenes) [µg/mL] | MIC90 (Proteus mirabilis) [µg/mL] | MIC90 (Citrobacter freundii) [µg/mL] |
| --- | --- | --- | --- | --- | --- | --- | --- | --- | --- | --- | --- | --- | --- | --- | --- | --- | --- |
| CCO/N=C1\C(=O)N(CCCCCCOc2ccc3oc(-c4ccc(OC)cc4)c(C(=O)OCC)c3c2)c2ccccc21 | < 0.016 | 16 (≈ 27.4 µM) | > 1000 | 1 (≈ 1.71 µM) | 8 (≈ 13.7 µM) | 1 (≈ 1.71 µM) | 1 (≈ 1.71 µM) | 2 (≈ 3.42 µM) | 32 (≈ 54.7 µM) | 0.5 (≈ 0.855 µM) | 1 (≈ 1.71 µM) | 1 (≈ 1.71 µM) | 2 (≈ 3.42 µM) | 0.5 (≈ 0.855 µM) | 0.25 (≈ 0.428 µM) | 0.25 (≈ 0.428 µM) | 1 (≈ 1.71 µM) |
| CCOC(=O)c1c(-c2ccc(OC)cc2)oc2ccc(OCCCN3C(=O)/C(=N\OC)c4ccccc43)cc12 | < 0.016 | 128 (≈ 242 µM) | > 1000 | 0.5 (≈ 0.946 µM) | 1 (≈ 1.89 µM) | 4 (≈ 7.57 µM) | 4 (≈ 7.57 µM) | 4 (≈ 7.57 µM) | 32 (≈ 60.5 µM) | 0.25 (≈ 0.473 µM) | 1 (≈ 1.89 µM) | 2 (≈ 3.78 µM) | 1 (≈ 1.89 µM) | 0.5 (≈ 0.946 µM) | 1 (≈ 1.89 µM) | 0.5 (≈ 0.946 µM) | 1 (≈ 1.89 µM) |
| CCOC(=O)c1c(-c2ccc(OC)cc2)oc2ccc(OCCCCCN3C(=O)/C(=N\O)c4ccccc43)cc12 | 0.062 (≈ 0.114 µM) | 64 (≈ 118 µM) | 1030 | 0.25 (≈ 0.461 µM) | 4 (≈ 7.37 µM) | 2 (≈ 3.69 µM) | 2 (≈ 3.69 µM) | 2 (≈ 3.69 µM) | 8 (≈ 14.7 µM) | 0.25 (≈ 0.461 µM) | 1 (≈ 1.84 µM) | 4 (≈ 7.37 µM) | 2 (≈ 3.69 µM) | 1 (≈ 1.84 µM) | 0.5 (≈ 0.922 µM) | 0.25 (≈ 0.461 µM) | 0.5 (≈ 0.922 µM) |
| CCO/N=C1\C(=O)N(CCCOc2ccc3oc(-c4ccc(OC)cc4)c(C(=O)OCC)c3c2)c2ccccc21 | < 0.016 | 16 (≈ 29.5 µM) | > 8000 | 1 (≈ 1.84 µM) | 8 (≈ 14.7 µM) | 8 (≈ 14.7 µM) | 4 (≈ 7.37 µM) | 4 (≈ 7.37 µM) | 16 (≈ 29.5 µM) | 0.5 (≈ 0.922 µM) | 1 (≈ 1.84 µM) | 4 (≈ 7.37 µM) | 2 (≈ 3.69 µM) | 4 (≈ 7.37 µM) | 1 (≈ 1.84 µM) | 2 (≈ 3.69 µM) | 2 (≈ 3.69 µM) |
| CCO/N=C1\C(=O)N(CCCOc2ccc3oc(-c4ccc(OC)cc4)c(C(=O)OCC)c3c2)c2ccc(OC)cc21 | < 0.016 | 32 (≈ 55.9 µM) | > 4000 | 1 (≈ 1.75 µM) | 8 (≈ 14 µM) | 4 (≈ 6.99 µM) | 8 (≈ 14 µM) | 8 (≈ 14 µM) | 64 (≈ 112 µM) | 0.5 (≈ 0.873 µM) | 2 (≈ 3.49 µM) | 4 (≈ 6.99 µM) | 4 (≈ 6.99 µM) | 1 (≈ 1.75 µM) | 2 (≈ 3.49 µM) | 4 (≈ 6.99 µM) | 2 (≈ 3.49 µM) |
| CCOC(=O)c1c(-c2ccc(OC)cc2)oc2ccc(OCCCCN3C(=O)/C(=N\OC)c4cc(F)ccc43)cc12 | 0.031 (≈ 0.0553 µM) | 32 (≈ 57.1 µM) | 1030 | 0.5 (≈ 0.892 µM) | 2 (≈ 3.57 µM) | 1 (≈ 1.78 µM) | 4 (≈ 7.14 µM) | 2 (≈ 3.57 µM) | 16 (≈ 28.5 µM) | 0.25 (≈ 0.446 µM) | 2 (≈ 3.57 µM) | 8 (≈ 14.3 µM) | 4 (≈ 7.14 µM) | 0.5 (≈ 0.892 µM) | 0.5 (≈ 0.892 µM) | 0.25 (≈ 0.446 µM) | 0.25 (≈ 0.446 µM) |
| CCOC(=O)c1c(-c2ccc(F)cc2)oc2ccc(OCCCCCCN3C(=O)/C(=N\OC)c4cc(F)ccc43)cc12 | 0.218 (≈ 0.378 µM) | 16 (≈ 27.7 µM) | 73 | 0.25 (≈ 0.434 µM) | 8 (≈ 13.9 µM) | 2 (≈ 3.47 µM) | 1 (≈ 1.73 µM) | 1 (≈ 1.73 µM) | 8 (≈ 13.9 µM) | 0.5 (≈ 0.867 µM) | 2 (≈ 3.47 µM) | 2 (≈ 3.47 µM) | 4 (≈ 6.94 µM) | 0.25 (≈ 0.434 µM) | 0.25 (≈ 0.434 µM) | 0.125 (≈ 0.217 µM) | 0.125 (≈ 0.217 µM) |
| CCOC(=O)c1c(-c2ccc(OC)cc2)oc2ccc(OCCCCCN3C(=O)C(=O)c4cc(F)ccc43)cc12 | 0.064 (≈ 0.117 µM) | 512 (≈ 938 µM) | 8000 | 1 (≈ 1.83 µM) | 8 (≈ 14.7 µM) | 2 (≈ 3.67 µM) | 2 (≈ 3.67 µM) | 4 (≈ 7.33 µM) | 64 (≈ 117 µM) | 0.25 (≈ 0.458 µM) | 2 (≈ 3.67 µM) | 8 (≈ 14.7 µM) | 8 (≈ 14.7 µM) | 1 (≈ 1.83 µM) | 1 (≈ 1.83 µM) | 0.25 (≈ 0.458 µM) | 1 (≈ 1.83 µM) |
| CCOC(=O)c1c(-c2ccc(OC)cc2)oc2ccc(OCCCCCCN3C(=O)/C(=N\OC)c4cc(F)ccc43)cc12 | < 0.016 | 16 (≈ 27.2 µM) | > 1000 | 0.5 (≈ 0.849 µM) | 16 (≈ 27.2 µM) | 4 (≈ 6.8 µM) | 4 (≈ 6.8 µM) | 2 (≈ 3.4 µM) | 16 (≈ 27.2 µM) | 0.25 (≈ 0.425 µM) | 2 (≈ 3.4 µM) | 8 (≈ 13.6 µM) | 4 (≈ 6.8 µM) | 0.5 (≈ 0.849 µM) | 0.5 (≈ 0.849 µM) | 0.125 (≈ 0.212 µM) | 0.5 (≈ 0.849 µM) |
